Test results: the supplement of paper PMC10307832

Tests used:
Assay in all cases: relative viability (nuclei count vs DMSO), 5 days (fraction); higher = more cells survive
Dabrafenib + Bortezomib = compound: CC(C)(C)c1nc(-c2cccc(NS(=O)(=O)c3c(F)cccc3F)c2F)c(-c2ccnc(N)n2)s1 [Dabrafenib] + CC(C)C[C@H](NC(=O)[C@H](Cc1ccccc1)NC(=O)c1cnccn1)B(O)O [Bortezomib] (partner 0.002 µM)
Outline: (§1)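 Medians of duplicate plates are given as relative viability. That measure is the nuclei count in treated wells divided by the count in vehicle wells. Counts were taken on 4× images of lung cancer cell lines in 1536-well plates, 5 days after pin-tool dosing the day after seeding with one drug alone or a fixed anchor-drug dose plus five library-drug doses (not always all listed) in √10 steps.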

Dabrafenib + Lapatinib = compound: CC(C)(C)c1nc(-c2cccc(NS(=O)(=O)c3c(F)cccc3F)c2F)c(-c2ccnc(N)n2)s1 [Dabrafenib] + CS(=O)(=O)CCNCc1ccc(-c2ccc3ncnc(Nc4ccc(OCc5cccc(F)c5)c(Cl)c4)c3c2)o1 [Lapatinib] (partner 2 µM)
Outline: as §1

Dabrafenib + Tozasertib = compound: CC(C)(C)c1nc(-c2cccc(NS(=O)(=O)c3c(F)cccc3F)c2F)c(-c2ccnc(N)n2)s1 [Dabrafenib] + Cc1cc(Nc2cc(N3CCN(C)CC3)nc(Sc3ccc(NC(=O)C4CC4)cc3)n2)n[nH]1 [Tozasertib] (partner 0.1 µM)
Outline: as §1

Dabrafenib + Olaparib = compound: CC(C)(C)c1nc(-c2cccc(NS(=O)(=O)c3c(F)cccc3F)c2F)c(-c2ccnc(N)n2)s1 [Dabrafenib] + O=C(c1cc(Cc2n[nH]c(=O)c3ccccc23)ccc1F)N1CCN(C(=O)C2CC2)CC1 [Olaparib] (partner 8 µM)
Outline: as §1

| Cell Line | relative viability (Dabrafenib + Bortezomib; first compound 0.003 µM) | relative viability (Dabrafenib + Bortezomib; first compound 0.009487 µM) | relative viability (Dabrafenib + Bortezomib; first compound 0.03 µM) | relative viability (Dabrafenib + Bortezomib; first compound 0.09487 µM) | relative viability (Dabrafenib + Bortezomib; first compound 0.3 µM) | relative viability (Dabrafenib + Lapatinib; first compound 0.003 µM) | relative viability (Dabrafenib + Lapatinib; first compound 0.009487 µM) | relative viability (Dabrafenib + Lapatinib; first compound 0.03 µM) | relative viability (Dabrafenib + Lapatinib; first compound 0.09487 µM) | relative viability (Dabrafenib + Lapatinib; first compound 0.3 µM) | relative viability (Dabrafenib + Tozasertib; first compound 0.003 µM) | relative viability (Dabrafenib + Tozasertib; first compound 0.009487 µM) | relative viability (Dabrafenib + Tozasertib; first compound 0.03 µM) | relative viability (Dabrafenib + Tozasertib; first compound 0.09487 µM) | relative viability (Dabrafenib + Tozasertib; first compound 0.3 µM) | relative viability (Dabrafenib + Olaparib; first compound 0.003 µM) | relative viability (Dabrafenib + Olaparib; first compound 0.009487 µM) | relative viability (Dabrafenib + Olaparib; first compound 0.03 µM) | relative viability (Dabrafenib + Olaparib; first compound 0.09487 µM) | relative viability (Dabrafenib + Olaparib; first compound 0.3 µM) |
| --- | --- | --- | --- | --- | --- | --- | --- | --- | --- | --- | --- | --- | --- | --- | --- | --- | --- | --- | --- | --- |
| 201T | 1.08 | 1.07 | 1.06 | 1.11 | 1.1 | 1.06 | 1.04 | 1.01 | 1.03 | 1.09 | 1.02 | 0.915 | 0.918 | 0.912 | 1.04 | 0.87 | 0.836 | 0.762 | 0.811 | 0.841 |
| A549 |  |  |  |  |  | 0.899 | 1.06 | 1.07 | 1 | 1.04 |  |  |  |  |  |  | 0.34 | 0.293 | 0.112 | 0.317 |
| A-427 |  | 0.969 | 0.939 | 0.821 | 0.987 |  | 1.06 | 0.878 | 0.793 | 1.05 |  | 0.202 | 0.187 | 0.196 | 0.209 | 0.704 | 0.685 | 0.707 | 0.658 | 0.726 |
| ABC-1 |  | 0.292 | 0.265 | 0.31 | 0.288 | 1.14 | 1.24 | 1.3 | 1.2 | 1.05 | 0.215 | 0.244 | 0.206 | 0.132 | 0.174 |  | 0.707 | 0.953 | 0.849 | 1.26 |
| BEN |  | 0.936 |  | 0.696 | 0.996 |  | 0.805 |  | 0.81 | 0.841 |  | 0.563 |  | 0.412 | 0.501 |  | 1.24 |  | 1.02 | 1.18 |
| CAL-12T | 0.623 | 1.18 | 1.06 | 1.12 | 1.08 | 0.709 | 0.74 | 0.683 | 0.639 | 0.789 | 0.377 | 0.424 | 0.423 | 0.328 | 0.349 | 0.657 | 0.685 | 0.671 | 0.574 | 0.76 |
| COR-L23 | 1.06 | 1.15 | 0.91 | 0.898 | 0.915 | 0.984 | 1.1 | 0.92 | 0.874 | 0.913 | 0.174 | 0.221 | 0.201 | 0.205 | 0.19 | 0.394 | 0.291 | 0.312 | 0.325 | 0.324 |
| COR-L 105 | 0.721 | 0.843 | 0.69 | 0.738 | 0.895 | 0.273 | 0.367 | 0.3 | 0.375 | 0.426 | 0.332 | 0.415 | 0.362 | 0.347 | 0.395 | 0.685 | 0.793 | 0.702 | 0.599 | 0.799 |
| Calu-6 | 1.07 | 1.03 | 0.844 | 0.712 | 0.824 | 1.18 | 1.03 | 0.911 | 0.848 | 0.886 |  |  |  |  |  | 0.569 | 0.556 | 0.482 | 0.303 | 0.481 |
| ChaGo-K-1 |  | 0.816 | 1.01 | 0.983 | 1.11 |  |  |  |  |  | 0.219 | 0.223 | 0.225 | 0.194 | 0.239 | 0.458 | 0.413 | 0.404 | 0.312 | 0.455 |
| EBC-1 | 0.602 | 0.644 | 0.477 | 0.411 | 0.353 |  | 0.233 | 0.223 | 0.23 | 0.274 |  |  |  |  |  | 0.686 | 0.691 | 0.664 | 0.39 | 0.474 |
| EKVX | 0.77 | 1.1 | 0.969 | 0.891 | 1.12 | 0.172 | 0.245 | 0.192 | 0.203 | 0.321 | 0.475 | 0.406 | 0.407 | 0.337 | 0.457 |  | 0.763 | 0.766 | 0.641 | 0.966 |
| EMC-BAC-2 | 1.04 | 1.11 | 1.03 | 0.936 | 1.06 | 0.87 | 0.775 | 0.877 | 0.926 | 0.916 | 0.286 | 0.284 | 0.23 | 0.243 | 0.267 |  | 0.444 | 0.433 | 0.336 | 0.388 |
| EPLC-272H |  | 0.945 | 0.954 | 0.631 | 1.18 |  | 0.882 | 1 | 0.765 | 1.18 | 0.345 | 0.326 | 0.33 | 0.273 | 0.256 | 0.784 | 0.931 | 0.717 | 0.749 | 0.964 |
| H3255 | 0.703 | 0.858 | 0.997 | 0.642 | 1.09 | 0.186 | 0.264 | 0.213 | 0.316 | 0.247 | 0.507 | 0.675 | 0.721 | 0.609 | 0.629 | 0.632 | 0.568 | 0.626 | 0.573 | 0.595 |
| HARA | 1.17 | 1.16 | 1 | 1.06 | 1.27 | 0.648 | 0.683 | 0.565 | 0.751 | 0.955 | 0.101 | 0.116 |  | 0.115 | 0.113 |  | 0.971 | 0.799 | 0.647 | 1.12 |
